Key:
[1] = target: Melanocortin receptor 4 (Homo sapiens) (UniProt P32245); assay: Inhibition of human MC4 receptor at 10 uM by CEREP assay
[2] = target: Thyrotropin-releasing hormone receptor (Homo sapiens) (UniProt P34981); assay: Inhibition of TRH receptor at 10 uM by CEREP assay
[3] = Inhibition of peripheral BZD receptor at 10 uM by CEREP assay
[4] = target: Beta-1 adrenergic receptor (Homo sapiens) (UniProt P08588); assay: Inhibition of human beta 1 adrenergic receptor at 10 uM by CEREP assay
[5] = target: Estrogen receptor (Homo sapiens) (UniProt P03372); assay: Inhibition of human estrogen receptor at 10 uM by CEREP assay
[6] = target: Cysteinyl leukotriene receptor 1 (Homo sapiens) (UniProt Q9Y271); assay: Inhibition of human LTD4 receptor at 10 uM by CEREP assay
[7] = target: Platelet-activating factor receptor (Homo sapiens) (UniProt P25105); assay: Inhibition of human PAF receptor at 10 uM by CEREP assay
[8] = target: Endothelin-1 receptor (Homo sapiens) (UniProt P25101); assay: Inhibition of human ETA receptor at 10 uM by CEREP assay
[9] = target: Acetylcholinesterase (Homo sapiens) (UniProt P22303); assay: Inhibition of human Acetylcholinesterase at 10 uM by CEREP assay
[10] = target: Neuropeptide Y receptor type 2 (Homo sapiens) (UniProt P49146); assay: Inhibition of human Y2 receptor at 10 uM by CEREP assay
[11] = target: cGMP-specific 3',5'-cyclic phosphodiesterase (Canis lupus familiaris) (UniProt O77746); assay: Inhibition of human PDE5 at 10 uM by CEREP assay
[12] = target: Progesterone receptor (Homo sapiens) (UniProt P06401); assay: Inhibition of human progesterone receptor at 10 uM by CEREP assay
[13] = Inhibition of ML1 receptor at 10 uM by CEREP assay
[14] = target: Muscarinic acetylcholine receptor M5 (Homo sapiens) (UniProt P08912); assay: Inhibition of human M5 receptor at 10 uM by CEREP assay
[15] = target: C-C chemokine receptor type 1 (Homo sapiens) (UniProt P32246); assay: Inhibition of human CCR1 receptor at 10 uM by CEREP assay
[16] = target: Nociceptin receptor (Homo sapiens) (UniProt P41146); assay: Inhibition of human ORL1 receptor at 10 uM by CEREP assay
[17] = Inhibition of PDE1 at 10 uM by CEREP assay
[18] = target: Galanin receptor type 2 (Homo sapiens) (UniProt O43603); assay: Inhibition of human GAL2 receptor at 10 uM by CEREP assay
[19] = target: Gastrin/cholecystokinin type B receptor (Homo sapiens) (UniProt P32239); assay: Inhibition of human CCKB receptor at 10 uM by CEREP assay
[20] = Oral bioavailability in rat at 10 mg/kg; assay type: ADME, organism-based; settings: in vivo
[21] = Inhibition of human I1 receptor by CEREP assay
[22] = target: Catechol O-methyltransferase (Homo sapiens) (UniProt P21964); assay: Inhibition of COMT at 10 uM by CEREP assay
[23] = target: Adenosine receptor A2a (Homo sapiens) (UniProt P29274); assay: Inhibition of human A2A receptor at 10 uM by CEREP assay
[24] = target: MAO-A (amine oxidase [flavin-containing] A) (Homo sapiens, UniProt P21397); assay: Inhibition of human MAO-A at 10 uM by CEREP assay
[25] = target: Sodium-dependent noradrenaline transporter (Homo sapiens) (UniProt P23975); assay: Inhibition of human NE transporter at 10 uM by CEREP assay
[26] = Inhibition of alpha 2 adrenergic receptor by CEREP assay
[27] = target: Muscarinic acetylcholine receptor M3 (Homo sapiens) (UniProt P20309); assay: Inhibition of human M3 receptor at 10 uM by CEREP assay
[28] = target: Type-1 angiotensin II receptor (Homo sapiens) (UniProt P30556); assay: Inhibition of human AT1 receptor at 10 uM by CEREP assay
[29] = target: Neuronal acetylcholine receptor; alpha4/beta2 (Homo sapiens) (UniProt P17787+P43681); assay: Inhibition of neuronal alpha4beta2 nAChR at 10 uM by CEREP assay; assay type: protein-complex assay
[30] = Inhibition of sst receptor at 10 uM by CEREP assay
[31] = species on record: Homo sapiens; assay: Inhibition of human DOP/delta 2 receptor at 10 uM by CEREP assay
[32] = target: Vasopressin V1a receptor (Homo sapiens) (UniProt P37288); assay: Inhibition of human V1a receptor at 10 uM by CEREP assay
[33] = Half life in mouse at 7.1 mg/kg, po; assay type: ADME, organism-based; design: dose 7.1 mg/kg, route oral; settings: in vivo
[34] = target: Cannabinoid receptor 2 (Homo sapiens) (UniProt P34972); assay: Inhibition of human CB2 receptor at 10 uM by CEREP assay
[35] = target: D(4) dopamine receptor (Homo sapiens) (UniProt P21917); assay: Inhibition of human D4.4 receptor at 10 uM by CEREP assay
[36] = target: Neuromedin-K receptor (Homo sapiens) (UniProt P29371); assay: Inhibition of human Nk3 receptor at 10 uM by CEREP assay
[37] = Cmax in rat at 10 mg/kg, po; assay type: ADME, organism-based; design: dose 10 mg/kg, route oral; settings: in vivo
[38] = target: 4-aminobutyrate aminotransferase, mitochondrial (Homo sapiens) (UniProt P80404); assay: Inhibition of GABA transaminase at 10 uM by CEREP assay
[39] = target: Kappa-type opioid receptor (Homo sapiens) (UniProt P41145); assay: Inhibition of KOP receptor at 10 uM by CEREP assay
[40] = target: Type-2 angiotensin II receptor (Homo sapiens) (UniProt P50052); assay: Inhibition of human AT2 receptor at 10 uM by CEREP assay
[41] = target: B1 bradykinin receptor (Homo sapiens) (UniProt P46663); assay: Inhibition of human B1 receptor at 10 uM by CEREP assay
[42] = target: Adenosine receptor A3 (Homo sapiens) (UniProt P0DMS8); assay: Inhibition of human A3 receptor at 10 uM by CEREP assay
[43] = target: Growth hormone secretagogue receptor type 1 (Homo sapiens) (UniProt Q92847); assay: Inhibition of human Ghrelin receptor at 10 uM by CEREP assay
[44] = target: Histamine H1 receptor (Homo sapiens) (UniProt P35367); assay: Inhibition of human H1 receptor at 10 uM by CEREP assay
[45] = target: B2 bradykinin receptor (Homo sapiens) (UniProt P30411); assay: Inhibition of human B2 receptor at 10 uM by CEREP assay
[46] = target: 5-hydroxytryptamine receptor 2A (Homo sapiens) (UniProt P28223); assay: Inhibition of human 5-HT2A receptor at 10 uM by CEREP assay

Chain of Histamine H1 receptor (Homo sapiens) (P35367 whole entry): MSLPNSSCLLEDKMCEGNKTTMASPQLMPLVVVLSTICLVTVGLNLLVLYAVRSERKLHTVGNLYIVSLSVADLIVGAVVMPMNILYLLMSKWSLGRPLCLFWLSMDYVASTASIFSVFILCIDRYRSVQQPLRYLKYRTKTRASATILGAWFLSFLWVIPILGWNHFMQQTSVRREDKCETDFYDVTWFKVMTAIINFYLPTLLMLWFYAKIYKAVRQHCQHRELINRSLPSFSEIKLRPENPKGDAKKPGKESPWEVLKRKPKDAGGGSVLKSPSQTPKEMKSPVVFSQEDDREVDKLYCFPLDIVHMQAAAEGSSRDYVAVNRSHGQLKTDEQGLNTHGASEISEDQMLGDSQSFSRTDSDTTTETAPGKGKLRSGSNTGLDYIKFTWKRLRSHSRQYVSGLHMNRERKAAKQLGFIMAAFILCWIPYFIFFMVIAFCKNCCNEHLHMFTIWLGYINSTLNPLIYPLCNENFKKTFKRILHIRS
Chain of Vasopressin V1a receptor (Homo sapiens) (P37288 whole entry, looked up): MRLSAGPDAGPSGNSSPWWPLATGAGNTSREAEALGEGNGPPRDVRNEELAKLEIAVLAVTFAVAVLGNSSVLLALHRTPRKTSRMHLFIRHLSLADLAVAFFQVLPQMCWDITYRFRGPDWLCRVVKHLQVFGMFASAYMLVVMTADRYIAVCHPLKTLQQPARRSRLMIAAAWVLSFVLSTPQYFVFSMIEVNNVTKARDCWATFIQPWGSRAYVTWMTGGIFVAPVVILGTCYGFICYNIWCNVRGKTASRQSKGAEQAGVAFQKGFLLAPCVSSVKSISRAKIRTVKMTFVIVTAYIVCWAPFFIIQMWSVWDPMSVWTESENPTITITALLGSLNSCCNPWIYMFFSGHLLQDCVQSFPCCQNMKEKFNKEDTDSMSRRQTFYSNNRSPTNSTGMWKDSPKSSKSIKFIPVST
Chain of Progesterone receptor (Homo sapiens) (P06401 whole entry): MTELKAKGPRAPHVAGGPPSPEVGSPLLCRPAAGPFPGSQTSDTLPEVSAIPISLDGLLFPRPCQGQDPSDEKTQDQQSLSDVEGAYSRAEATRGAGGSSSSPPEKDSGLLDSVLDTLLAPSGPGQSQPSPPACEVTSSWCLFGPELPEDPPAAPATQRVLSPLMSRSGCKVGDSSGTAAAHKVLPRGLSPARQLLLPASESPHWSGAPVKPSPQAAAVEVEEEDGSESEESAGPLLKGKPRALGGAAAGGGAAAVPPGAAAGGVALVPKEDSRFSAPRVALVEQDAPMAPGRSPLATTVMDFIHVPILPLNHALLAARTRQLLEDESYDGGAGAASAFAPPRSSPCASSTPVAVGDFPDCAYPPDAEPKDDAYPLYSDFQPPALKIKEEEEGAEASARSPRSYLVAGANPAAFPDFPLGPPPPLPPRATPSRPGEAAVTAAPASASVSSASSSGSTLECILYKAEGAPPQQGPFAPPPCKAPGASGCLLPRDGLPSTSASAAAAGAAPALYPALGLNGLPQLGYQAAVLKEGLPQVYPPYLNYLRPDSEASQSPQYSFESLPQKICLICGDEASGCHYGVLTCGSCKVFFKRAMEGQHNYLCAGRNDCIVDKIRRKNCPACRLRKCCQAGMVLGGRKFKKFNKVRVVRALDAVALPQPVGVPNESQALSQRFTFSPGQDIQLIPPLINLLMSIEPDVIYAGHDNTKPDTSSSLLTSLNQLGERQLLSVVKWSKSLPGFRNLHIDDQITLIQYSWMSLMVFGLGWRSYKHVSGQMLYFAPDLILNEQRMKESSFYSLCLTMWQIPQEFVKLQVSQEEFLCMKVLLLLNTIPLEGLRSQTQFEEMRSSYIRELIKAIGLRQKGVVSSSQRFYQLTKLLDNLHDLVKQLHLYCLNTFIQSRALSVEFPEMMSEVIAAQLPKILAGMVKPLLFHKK
Chain of Gastrin/cholecystokinin type B receptor (Homo sapiens) (P32239 whole entry): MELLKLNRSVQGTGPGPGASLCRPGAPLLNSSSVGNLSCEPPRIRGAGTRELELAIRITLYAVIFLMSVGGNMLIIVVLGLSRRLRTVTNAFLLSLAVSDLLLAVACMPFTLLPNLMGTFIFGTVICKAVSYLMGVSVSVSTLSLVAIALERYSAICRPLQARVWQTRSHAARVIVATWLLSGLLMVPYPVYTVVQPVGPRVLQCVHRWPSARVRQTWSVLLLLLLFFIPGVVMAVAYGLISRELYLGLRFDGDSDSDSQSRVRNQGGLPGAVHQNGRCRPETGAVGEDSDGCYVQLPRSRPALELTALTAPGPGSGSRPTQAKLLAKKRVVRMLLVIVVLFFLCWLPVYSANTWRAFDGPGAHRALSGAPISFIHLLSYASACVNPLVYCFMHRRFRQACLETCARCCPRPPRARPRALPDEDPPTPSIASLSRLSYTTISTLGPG
Chain of 4-aminobutyrate aminotransferase, mitochondrial (Homo sapiens) (P80404 whole entry): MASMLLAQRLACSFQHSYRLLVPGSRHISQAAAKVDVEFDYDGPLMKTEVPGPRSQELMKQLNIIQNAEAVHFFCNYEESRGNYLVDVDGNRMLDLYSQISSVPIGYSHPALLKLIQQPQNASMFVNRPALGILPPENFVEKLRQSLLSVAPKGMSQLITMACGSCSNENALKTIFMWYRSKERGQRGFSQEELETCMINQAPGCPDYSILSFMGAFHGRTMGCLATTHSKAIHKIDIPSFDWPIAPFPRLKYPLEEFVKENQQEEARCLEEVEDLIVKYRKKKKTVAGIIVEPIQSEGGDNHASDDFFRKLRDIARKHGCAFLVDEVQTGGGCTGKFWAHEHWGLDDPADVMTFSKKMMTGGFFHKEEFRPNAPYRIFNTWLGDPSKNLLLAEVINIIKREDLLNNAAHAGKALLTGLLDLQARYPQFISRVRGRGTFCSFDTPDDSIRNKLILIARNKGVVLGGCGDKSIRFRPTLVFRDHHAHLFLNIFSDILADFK
Chain of Beta-1 adrenergic receptor (Homo sapiens) (P08588 whole entry, looked up): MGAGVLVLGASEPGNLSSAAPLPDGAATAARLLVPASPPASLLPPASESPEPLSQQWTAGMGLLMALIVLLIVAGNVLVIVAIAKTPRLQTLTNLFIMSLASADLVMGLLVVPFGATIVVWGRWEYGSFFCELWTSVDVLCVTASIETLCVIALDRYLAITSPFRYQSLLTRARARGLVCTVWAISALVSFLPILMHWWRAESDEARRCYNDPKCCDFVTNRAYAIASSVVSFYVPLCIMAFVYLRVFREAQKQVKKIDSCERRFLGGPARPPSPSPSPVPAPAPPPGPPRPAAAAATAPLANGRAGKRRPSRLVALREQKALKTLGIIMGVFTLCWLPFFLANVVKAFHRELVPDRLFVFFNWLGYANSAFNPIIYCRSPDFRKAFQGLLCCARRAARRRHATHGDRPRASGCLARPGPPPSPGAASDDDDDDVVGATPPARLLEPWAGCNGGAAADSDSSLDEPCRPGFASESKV
Chain of Nociceptin receptor (Homo sapiens) (P41146 whole entry): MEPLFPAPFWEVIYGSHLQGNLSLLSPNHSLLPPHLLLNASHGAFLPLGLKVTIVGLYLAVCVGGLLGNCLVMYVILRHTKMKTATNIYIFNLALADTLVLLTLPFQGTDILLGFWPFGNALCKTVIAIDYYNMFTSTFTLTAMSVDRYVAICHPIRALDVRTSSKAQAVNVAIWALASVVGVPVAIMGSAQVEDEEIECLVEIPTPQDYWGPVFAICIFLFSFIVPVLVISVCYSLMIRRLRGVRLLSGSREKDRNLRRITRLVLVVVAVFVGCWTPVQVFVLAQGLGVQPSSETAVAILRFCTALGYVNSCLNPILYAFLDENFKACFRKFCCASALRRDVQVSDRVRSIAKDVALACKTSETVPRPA
Chain of Endothelin-1 receptor (Homo sapiens) (P25101 whole entry): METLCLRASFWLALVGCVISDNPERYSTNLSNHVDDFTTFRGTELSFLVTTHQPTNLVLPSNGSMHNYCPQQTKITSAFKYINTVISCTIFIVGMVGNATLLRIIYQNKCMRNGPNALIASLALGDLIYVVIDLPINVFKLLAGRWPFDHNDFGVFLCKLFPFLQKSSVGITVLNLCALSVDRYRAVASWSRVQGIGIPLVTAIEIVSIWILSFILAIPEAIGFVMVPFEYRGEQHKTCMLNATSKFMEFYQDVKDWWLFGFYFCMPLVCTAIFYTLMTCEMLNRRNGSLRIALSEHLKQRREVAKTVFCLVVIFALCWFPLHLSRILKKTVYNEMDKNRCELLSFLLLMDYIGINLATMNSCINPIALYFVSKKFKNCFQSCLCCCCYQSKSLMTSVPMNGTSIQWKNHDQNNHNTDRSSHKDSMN
Chain of Sodium-dependent noradrenaline transporter (Homo sapiens) (P23975 whole entry): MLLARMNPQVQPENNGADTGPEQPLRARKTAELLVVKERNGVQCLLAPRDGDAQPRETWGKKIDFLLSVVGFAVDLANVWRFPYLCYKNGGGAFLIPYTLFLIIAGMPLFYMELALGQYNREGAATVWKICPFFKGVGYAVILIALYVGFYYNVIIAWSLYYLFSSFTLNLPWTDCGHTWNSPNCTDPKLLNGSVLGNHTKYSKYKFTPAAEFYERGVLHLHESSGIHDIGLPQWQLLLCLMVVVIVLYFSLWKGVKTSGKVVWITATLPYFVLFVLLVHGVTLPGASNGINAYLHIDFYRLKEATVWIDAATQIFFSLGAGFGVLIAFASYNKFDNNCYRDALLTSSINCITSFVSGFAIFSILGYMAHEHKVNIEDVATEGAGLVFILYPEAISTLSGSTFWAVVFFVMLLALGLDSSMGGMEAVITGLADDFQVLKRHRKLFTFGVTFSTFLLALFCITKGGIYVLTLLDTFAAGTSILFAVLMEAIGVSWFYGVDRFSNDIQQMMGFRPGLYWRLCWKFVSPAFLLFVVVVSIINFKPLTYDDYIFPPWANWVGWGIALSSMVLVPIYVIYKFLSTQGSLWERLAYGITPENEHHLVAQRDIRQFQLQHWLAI
Chain of Adenosine receptor A3 (Homo sapiens) (P0DMS8 whole entry): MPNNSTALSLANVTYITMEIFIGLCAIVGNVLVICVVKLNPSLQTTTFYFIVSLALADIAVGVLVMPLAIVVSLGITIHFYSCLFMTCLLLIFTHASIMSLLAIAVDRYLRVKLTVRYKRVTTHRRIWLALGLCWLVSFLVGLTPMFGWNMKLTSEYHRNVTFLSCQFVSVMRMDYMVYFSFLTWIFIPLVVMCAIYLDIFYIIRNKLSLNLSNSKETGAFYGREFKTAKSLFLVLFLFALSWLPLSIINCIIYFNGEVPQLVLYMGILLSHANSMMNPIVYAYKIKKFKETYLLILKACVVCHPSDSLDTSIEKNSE

**Q.** What does the source list for CCc1cccc(CC)c1Cc1ncc[nH]1?
**A.** inhibition [1]: -4%; inhibition [2]: 0%; inhibition [3]: 1%; inhibition [4]: 5%; inhibition [5]: -4%; inhibition [6]: 1%; inhibition [7]: -7%; inhibition [8]: -3%; inhibition [9]: 17%; inhibition [10]: 15%; inhibition [11]: 5%; inhibition [12]: -2%; inhibition [13]: 32%; inhibition [14]: 8%; inhibition [15]: -1%; inhibition [16]: -3%; inhibition [17]: 7%; inhibition [18]: 4%; inhibition [19]: 6%; bioavailability [20]: 17%; Ki [21]: 660 nM; inhibition [22]: 3%; inhibition [23]: -6%; inhibition at 10 µM [24]: -4%; inhibition [25]: -1%; Ki [26]: 2400 nM; inhibition [27]: 25%; inhibition [28]: 2%; inhibition [29]: 7%; inhibition [30]: -6%; inhibition [31]: 7%; inhibition [32]: 1%; half-life [33]: 57 min; inhibition [34]: -4%; inhibition [35]: -3%; inhibition [36]: 10%; Cmax [37]: 100 ng/mL; inhibition [38]: 17%; inhibition [39]: 19%; inhibition [40]: -3%; inhibition [41]: -6%; inhibition [42]: 2%; inhibition [43]: 3%; inhibition [44]: 1%; inhibition [45]: 3%; inhibition [46]: -5%

Reference: ChEMBL document CHEMBL2203234, “Optimisation of imidazole compounds as selective TAAR1 agonists: discovery of RO5073012” (Bioorg Med Chem Lett, 2012)
